Where a name gives a salt, the structure may show the parent alone. Read-outs that look alike come from different tables or passages of the source.
Target: T1, human NaV1.8 (hNaV1.8) ion channel (Homo sapiens, UniProt Q9Y5Y9)
T1 construct: expressed in transfected cells
Assay: Inhibition of Human NaV1.8 stably expressed in SH-SY-5Y cells (membrane potential dye fluorescence assay)
Format: cell-based
Conditions: FLIPR membrane potential dye, 10 μM pyrethroid, 250 nM TTX, test range 100 μM-0.05 μM
Method: Inhibition of Human NaV1.8 stably expressed in SH-SY-5Y cells
A SH-SY-5Y neuroblastoma cell line stably expressing the human NaV1.8 (hNaV1.8) ion channel was constructed. This cell line has been used to develop a medium to high throughput assay for determining the ability of test compounds to inhibit membrane depolarisation mediated via the hNaV1.8 channel.
SH-SY-5Y hNaV1.8 are grown in adherent monolayer culture using 50:50 Ham's F-12/EMEM tissue culture medium supplemented with 15% (v/v) foetal bovine serum; 2 mM L-glutamine, 1% NEAA and 600 μg·ml^−1 Geneticin sulphate. Cells are removed from the tissue culture flask using trypsin/EDTA and re-plated into black walled, clear bottom 96-well assay plates at 50,000 cells·well^−1 24 hours prior to assay.
On the day of assay the cell assay plates are washed to remove cell culture medium using a sodium free assay buffer (145 mM tetramethyl ammonium chloride; 2 mM calcium chloride; 0.8 mM magnesium chloride hexahydrate; 10 mM HEPES; 10 mM glucose; 5 mM potassium chloride, pH 7.4). Fluorescent membrane potential dye solution (FLIPR™ membrane potential dye, Molecular Devices Corporation), containing 10 μM of a pyrethroid to prevent channel inactivation and 250 nM tetrodotoxin (TTX) to reduce interference from TTX-sensitive sodium channels present in the cell line. Test compound, initially dissolved in dimethyl sulfoxide but further diluted in sodium free buffer, is added to achieve the final test concentration range of 100 μM-0.05 μM.
Cell plates are incubated for 30 minutes at room temperature to allow equilibration of dye and test compound. Plates are then transferred to a fluorescence plate reader for fluorescence measurement using an excitation wavelength of 530 nm whilst measuring fluorescence emission at 565 nm. […] Membrane depolarisation is registered by an increase in fluorescence emission at 565 nm.
The change in fluorescence seen in each test well upon the addition of sodium containing buffer is calculated relative to the baseline fluorescence for that well. This figure is then used for calculating the IC50 for each test compound.

[1] = SH-SY-5Y cells stably expressing hNaV1.8, read-out: hNav1.8 IC50

T1 sequence (Q9Y5Y9 whole entry): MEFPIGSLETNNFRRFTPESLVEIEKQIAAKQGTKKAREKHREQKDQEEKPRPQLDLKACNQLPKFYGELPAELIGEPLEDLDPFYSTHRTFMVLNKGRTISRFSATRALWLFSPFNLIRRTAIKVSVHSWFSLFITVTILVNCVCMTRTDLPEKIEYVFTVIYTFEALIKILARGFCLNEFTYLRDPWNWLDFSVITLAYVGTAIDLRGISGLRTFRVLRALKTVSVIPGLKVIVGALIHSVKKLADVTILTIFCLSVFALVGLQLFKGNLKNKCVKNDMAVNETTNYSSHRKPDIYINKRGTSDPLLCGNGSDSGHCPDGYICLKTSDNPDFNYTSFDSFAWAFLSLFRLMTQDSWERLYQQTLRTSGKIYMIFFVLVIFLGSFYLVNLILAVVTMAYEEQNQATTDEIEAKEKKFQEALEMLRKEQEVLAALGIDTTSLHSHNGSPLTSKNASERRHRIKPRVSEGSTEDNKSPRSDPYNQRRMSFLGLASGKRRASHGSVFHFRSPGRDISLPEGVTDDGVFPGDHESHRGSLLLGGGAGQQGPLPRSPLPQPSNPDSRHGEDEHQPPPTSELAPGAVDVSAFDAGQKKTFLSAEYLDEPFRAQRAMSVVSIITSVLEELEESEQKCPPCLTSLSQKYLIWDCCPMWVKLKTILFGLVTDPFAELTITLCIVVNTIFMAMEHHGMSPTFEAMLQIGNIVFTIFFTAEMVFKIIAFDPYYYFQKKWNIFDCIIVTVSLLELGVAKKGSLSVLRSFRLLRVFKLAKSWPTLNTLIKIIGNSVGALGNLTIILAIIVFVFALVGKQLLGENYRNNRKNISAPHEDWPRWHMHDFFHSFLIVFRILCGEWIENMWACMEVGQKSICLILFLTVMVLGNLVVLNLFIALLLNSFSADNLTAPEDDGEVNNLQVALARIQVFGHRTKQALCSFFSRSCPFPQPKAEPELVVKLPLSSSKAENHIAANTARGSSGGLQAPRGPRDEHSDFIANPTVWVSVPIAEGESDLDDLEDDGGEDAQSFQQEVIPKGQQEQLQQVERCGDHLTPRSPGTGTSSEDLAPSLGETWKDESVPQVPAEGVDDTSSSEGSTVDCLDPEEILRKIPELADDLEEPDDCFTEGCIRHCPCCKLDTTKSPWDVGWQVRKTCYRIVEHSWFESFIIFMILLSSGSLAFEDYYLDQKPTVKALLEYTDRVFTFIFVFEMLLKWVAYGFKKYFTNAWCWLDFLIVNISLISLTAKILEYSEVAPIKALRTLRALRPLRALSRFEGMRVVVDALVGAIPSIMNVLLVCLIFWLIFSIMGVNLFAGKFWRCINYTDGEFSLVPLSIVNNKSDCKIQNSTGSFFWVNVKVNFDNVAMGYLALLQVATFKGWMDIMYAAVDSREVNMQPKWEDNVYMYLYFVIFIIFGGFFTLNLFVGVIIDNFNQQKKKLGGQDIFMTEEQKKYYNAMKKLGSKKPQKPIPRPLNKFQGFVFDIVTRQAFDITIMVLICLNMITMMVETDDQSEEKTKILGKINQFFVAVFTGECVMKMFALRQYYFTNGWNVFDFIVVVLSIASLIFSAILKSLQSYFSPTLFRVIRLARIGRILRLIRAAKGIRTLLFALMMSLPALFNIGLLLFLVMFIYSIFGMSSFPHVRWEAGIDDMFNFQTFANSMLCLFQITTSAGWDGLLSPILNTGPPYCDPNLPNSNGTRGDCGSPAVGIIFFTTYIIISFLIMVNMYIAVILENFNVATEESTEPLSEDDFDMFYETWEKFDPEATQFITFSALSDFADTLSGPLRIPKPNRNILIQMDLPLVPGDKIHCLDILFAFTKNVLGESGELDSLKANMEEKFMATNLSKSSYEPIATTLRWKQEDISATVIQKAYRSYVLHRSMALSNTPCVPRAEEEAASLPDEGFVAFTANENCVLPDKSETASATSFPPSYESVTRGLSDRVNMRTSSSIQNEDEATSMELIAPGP

Compound: CN(C1CN(C(=O)Nc2cccc(Oc3ccccc3)c2)C1)C1CCc2cc(F)ccc21 (centres unmarked) [Example 29, 3-[(5-Fluoro-indan-1-yl)-methyl-amino]-azetidine-1-carboxylic acid (3-phenoxy-phenyl)-amide]
- IC50 [1]: 420 nM

Compound: O=C(Nc1ccc(Oc2cccc(F)c2)cc1)N1CC(NC2CCc3cc(F)ccc32)C1 (centres unmarked) [Example 13, 3-(5-Fluoro-indan-1-ylamino)-azetidine-1-carboxylic acid [4-(3-fluoro-phenoxy)-phenyl]-amide]
- IC50 [1]: 310 nM

Compound: Cc1ccccc1CC(C)NC1CN(C(=O)NC(C)c2ccc(C(F)(F)F)cc2)C1 (centres unmarked) [Example 1, 3-(1-Methyl-2-o-tolyl-ethylamino)-azetidine-1-carboxylic acid [1-(4-trifluoromethyl-phenyl)-ethyl]-amide]
- IC50 (hNav1.8 IC50, SH-SY-5Y cells stably expressing hNaV1.8): 1300 nM

Compound: CCCCOc1ccc(NC(=O)N2CC(NC(C)c3ccccc3Cl)C2)cc1 (centres unmarked) [Example 71, 3-[1-(2-Chloro-phenyl)-ethylamino]-azetidine-1-carboxylic acid (4-butoxy-phenyl)-amide]
- IC50 [1]: 770 nM

Compound: CCCCOc1cccc(NC(=O)N2CC(N(C)C(C)c3ccc(F)cc3)C2)c1 (centres unmarked) [Example 85, 3-{[1-(4-Fluoro-phenyl)-ethyl]-methyl-amino}-azetidine-1-carboxylic acid (3-butoxy-phenyl)-amide]
- IC50 [1]: 1460 nM

Compound: CC(c1ccccc1Cl)N(C)C1CN(C(=O)Nc2cccc(C(F)(F)F)c2)C1 (centres unmarked) [Example 97, 3-{[1-(2-Chloro-phenyl)-ethyl]-methyl-amino}-azetidine-1-carboxylic acid (3-trifluoromethyl-phenyl)-amide]
- IC50 [1]: 3640 nM

Compound: Cc1cc(F)ccc1C(C)NC1CN(C(=O)Nc2ccc(Oc3ccc(F)cc3)cc2)C1 (centres unmarked) [Example 119, 3-[1-(4-Fluoro-2-methyl-phenyl)-ethylamino]-azetidine-1-carboxylic acid [4-(4-fluoro-phenoxy)-phenyl]-amide]
- IC50 [1]: 460 nM

Compound: O=C(c1ccc(Oc2ccc(F)cc2)cc1)N1CC(NC2CCc3cc(F)ccc32)C1 (centres unmarked) [Example 43, [3-(5-Fluoro-indan-1-ylamino)-azetidin-1-yl]-[4-(4-fluoro-phenoxy)-phenyl]-methanone]
- IC50 [1]: 240 nM

Compound: Cc1ccc(C(C)NC2CN(C(=O)Nc3ccc(Oc4ccccc4)cc3)C2)cc1 (centres unmarked) [Example 121, 3-(1-p-Tolyl-ethylamino)-azetidine-1-carboxylic acid (4-phenoxy-phenyl)-amide]
- IC50 [1]: 400 nM

Compound: CC(NC1CN(C(=O)NC(c2ccc(F)cc2)c2ccc(F)cc2)C1)c1ccc(F)cc1 (centres unmarked) [Example 2, 3-[1-(4-Fluoro-phenyl)-ethylamino]-azetidine-1-carboxylic acid [bis-(4-fluoro-phenyl)-methyl]-amide]
- IC50 [1]: 2620 nM

Compound: CC(NC1CN(C(=O)Nc2cccc(C(F)(F)F)c2)C1)c1ccc(F)cc1 (centres unmarked) [Example 73, 3-[1-(4-Fluoro-phenyl)-ethylamino]-azetidine-1-carboxylic acid (3-trifluoromethyl-phenyl)-amide]
- IC50 [1]: 2560 nM

Compound: CC(NC1CN(C(=O)Nc2ccc(C(F)(F)F)cc2)C1)c1ccccc1Cl (centres unmarked) [Example 124, 3-[1-(2-Chloro-phenyl)-ethylamino]-azetidine-1-carboxylic acid (4-trifluoromethyl-phenyl)-amide]
- IC50 [1]: 2480 nM

Compound: O=C(Nc1ccc(Oc2ccc(F)cc2)cc1)N1CC(NC2CCc3cc(O)ccc32)C1 (centres unmarked) [Example 12, 3-(5-Hydroxy-indan-1-ylamino)-azetidine-1-carboxylic acid [4-(4-fluoro-phenoxy)-phenyl]-amide]
- IC50 [1]: 1350 nM

Compound: CC(NC1CN(C(=O)Nc2cccc(Oc3ccccc3)c2)C1)c1ccccc1Cl (centres unmarked) [Example 102, 3-[1-(2-Chloro-phenyl)-ethylamino]-azetidine-1-carboxylic acid (3-phenoxy-phenyl)-amide]
- IC50 [1]: 800 nM

Compound: CN(C1CN(C(=O)Nc2ccc(Oc3ccccc3)cc2)C1)C1CCc2cc(F)ccc21 (centres unmarked) [Example 38, 3-[(5-Fluoro-indan-1-yl)-methyl-amino]-azetidine-1-carboxylic acid (4-phenoxy-phenyl)-amide]
- IC50 [1]: 560 nM

Compound: CC(c1ccc(F)cc1)N(C)C1CN(C(=O)Nc2cccc(Oc3ccccc3)c2)C1 (centres unmarked) [Example 109, 3-{[1-(4-Fluoro-phenyl)-ethyl]-methyl-amino}-azetidine-1-carboxylic acid (3-phenoxy-phenyl)-amide]
- IC50 [1]: 470 nM

Compound: Cc1ccccc1C(C)NC1CN(C(=O)Nc2cccc(Oc3ccccc3)c2)C1 (centres unmarked) [Example 106, 3-(1-o-Tolyl-ethylamino)-azetidine-1-carboxylic acid (3-phenoxy-phenyl)-amide]
- IC50 [1]: 560 nM

Compound: O=C(Nc1ccc(Oc2ccc(F)cc2)cc1)N1CC(NC2CCc3cc(Br)ccc32)C1 (centres unmarked) [Example 17, 3-(5-Bromo-indan-1-ylamino)-azetidine-1-carboxylic acid [4-(4-fluoro-phenoxy)-phenyl]-amide]
- IC50 [1]: 540 nM

Compound: CCCCOc1ccc(NC(=O)N2CC(N(C)C(C)c3ccc(F)cc3)C2)cc1 (centres unmarked) [Example 86, 3-{[1-(4-Fluoro-phenyl)-ethyl]-methyl-amino}-azetidine-1-carboxylic acid (4-butoxy-phenyl)-amide]
- IC50 [1]: 3530 nM

Compound: O=C(Nc1ccc(Oc2ccc(F)cc2)cc1)N1CC(NC2CCc3cc(Cl)ccc32)C1 (centres unmarked) [Example 138, 3-(5-Chloro-indan-1-ylamino)-azetidine-1-carboxylic acid [4-(4-fluoro-phenoxy)-phenyl]-amide methanesulfonate salt]
- IC50 [1]: 430 nM

Compound: Cc1ccccc1C(C)NC1CN(C(=O)Nc2cccc(C(F)(F)F)c2)C1 (centres unmarked) [Example 75, 3-(1-o-Tolyl-ethylamino)-azetidine-1-carboxylic acid (3-trifluoromethyl-phenyl)-amide]
- IC50 [1]: 2260 nM

Compound: O=C(Nc1ccc(OCc2ccccc2)cc1)N1CC(NCc2c(F)cccc2F)C1 [Example 52, 3-(2,6-Difluoro-benzylamino)-azetidine-1-carboxylic acid (4-benzyloxy-phenyl)-amide]
- IC50 [1]: 870 nM

Compound: CN(C1CN(C(=O)Nc2ccc(Oc3ccc(F)cc3)cc2)C1)C1CCc2cc(F)ccc21 (centres unmarked) [Example 37, 3-[(5-Fluoro-indan-1-yl)-methyl-amino]-azetidine-1-carboxylic acid [4-(4-fluoro-phenoxy)-phenyl]-amide]
- IC50 [1]: 420 nM

Compound: CC(NC(=O)N1CC(NC2CCc3ccccc3C2)C1)c1ccc(C(F)(F)F)cc1 (centres unmarked) [Example 4, 3-(1,2,3,4-Tetrahydro-naphthalen-2-ylamino)-azetidine-1-carboxylic acid [1-(4-trifluoromethyl-phenyl)-ethyl]-amide]
- IC50 [1]: 3320 nM

Compound: CC(NC1CN(C(=O)Nc2ccc(Oc3ccccc3)cc2)C1)c1ccc(F)cc1Cl (centres unmarked) [Example 57, 3-[1-(2-Chloro-4-fluoro-phenyl)-ethylamino]-azetidine-1-carboxylic acid (4-phenoxy-phenyl)-amide]
- IC50 [1]: 1220 nM

Compound: O=C(Nc1ccc(Oc2ccc(F)cc2)cc1)N1CC(NC2CCc3cc(F)ccc3C2)C1 (centres unmarked) [Example 8, 3-(6-Fluoro-1,2,3,4-tetrahydro-naphthalen-2-ylamino)-azetidine-1-carboxylic acid [4-(4-fluoro-phenoxy)-phenyl]-amide]
- IC50 [1]: 310 nM

Compound: O=C(Nc1ccc(Oc2ccc(F)cc2)cc1)N1CC(NC2CCCc3ccccc32)C1 (centres unmarked) [Example 19, 3-(1,2,3,4-Tetrahydro-naphthalen-1-ylamino)-azetidine-1-carboxylic acid [4-(4-fluoro-phenoxy)-phenyl]-amide]
- IC50 [1]: 190 nM

Compound: CC1Cc2ccccc2C1NC1CN(C(=O)Nc2ccc(Oc3ccccc3)cc2)C1 (centres unmarked) [Example 25, 3-(2-Methyl-indan-1-ylamino)-azetidine-1-carboxylic acid (4-phenoxy-phenyl)-amide]
- IC50 [1]: 840 nM

Compound: Cc1ccccc1C(C)NC1CN(C(=O)Nc2ccc(Oc3ccccc3)cc2)C1 (centres unmarked) [Example 61, 3-(1-o-Tolyl-ethylamino)-azetidine-1-carboxylic acid (4-phenoxy-phenyl)-amide]
- IC50 [1]: 750 nM

Compound: Cc1ccccc1C(C)NC1CN(C(=O)Nc2ccc(C(F)(F)F)cc2)C1 (centres unmarked) [Example 104, 3-(1-o-Tolyl-ethylamino)-azetidine-1-carboxylic acid (4-trifluoromethyl-phenyl)-amide]
- IC50 [1]: 2540 nM

Compound: COc1ccc(C(C)NC2CN(C(=O)Nc3ccc(C(F)(F)F)cc3)C2)cc1 (centres unmarked) [Example 115, 3-[1-(4-Methoxy-phenyl)-ethylamino]-azetidine-1-carboxylic acid (4-trifluoromethyl-phenyl)-amide]
- IC50 [1]: 2430 nM

Compound: O=C(Nc1ccc(Oc2ccccc2)cc1)N1CC(NC2CCc3cc(F)ccc32)C1 (centres unmarked) [Example 137, 3-(5-Fluoro-indan-1-ylamino)-azetidine-1-carboxylic acid (4-phenoxy-phenyl)-amide fumarate salt]
- IC50 [1]: 270 nM

Reference: patent US20100105651A1, “ANTAGONISTS OF SNS SODIUM CHANNELS” (priority 2005, published 2010)
